Results on 1 compound are retold here after ChEMBL document CHEMBL3886468, “Cyclohexylamine derivatives having β2 adrenergic agonist and M3 muscarinic antagonist activities” (2016).

This assay concerns the target Muscarinic acetylcholine receptor M3 (Homo sapiens, UniProt P20309). In words: Muscarinic Receptor Binding Assay: The study of binding to human muscarinic M1, M2, M3, M4 and M5 receptors was performed using commercial membranes (Perkin Elmer) prepared from CHO-K1 cells. Radioligand binding experiments were conducted in 96 polypropylene well plates in a total volume of 200 ul. All reagents were dissolved in assay binding buffer (PBS with calcium and magnesium, SIGMA), except compounds that were dissolved in DMSO 100%. Non-specific binding (NSB) was measured in the presence of 1 uM atropine. [3H]-NMS was used as the radioligand at a concentration of 1 nM for M2, M3 and M5 and 0.3 nM for M1 and M4. [3H]-NMS and antagonists were incubated with membranes that express human muscarinic receptors M1, M2, M3, M4 and M5 at concentrations of 8.1, 10, 4.9, 4.5 and 4.9 ug/well, respectively. After an incubation period of two hours with gentle shaking, 150 ul of the reaction mix were transferred to 96 GF/C filter plates (Millipore), previously treated with wash buffer. Type of assay: cell-based.

Chain of Muscarinic acetylcholine receptor M3 (P20309 whole entry): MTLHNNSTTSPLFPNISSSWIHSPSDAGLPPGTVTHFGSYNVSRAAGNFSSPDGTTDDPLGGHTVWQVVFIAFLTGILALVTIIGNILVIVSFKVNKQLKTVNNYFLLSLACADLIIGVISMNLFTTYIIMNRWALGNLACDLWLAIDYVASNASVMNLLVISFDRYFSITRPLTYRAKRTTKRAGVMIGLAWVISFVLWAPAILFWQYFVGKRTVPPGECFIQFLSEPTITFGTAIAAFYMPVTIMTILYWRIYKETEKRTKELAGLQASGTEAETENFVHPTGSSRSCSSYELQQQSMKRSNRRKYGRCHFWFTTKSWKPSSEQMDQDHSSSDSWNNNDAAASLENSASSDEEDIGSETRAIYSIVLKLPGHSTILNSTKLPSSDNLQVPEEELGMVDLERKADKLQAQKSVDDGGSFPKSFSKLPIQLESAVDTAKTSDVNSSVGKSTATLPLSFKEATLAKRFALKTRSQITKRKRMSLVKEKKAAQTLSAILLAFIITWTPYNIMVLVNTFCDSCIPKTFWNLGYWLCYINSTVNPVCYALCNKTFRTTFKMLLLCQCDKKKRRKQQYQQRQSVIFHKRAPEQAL

As to `CN(CCCn1nnc2cc(CNC[C@H](O)c3ccc(O)c4c3OCC(=O)N4)ccc21)[C@H]1CC[C@H](OC(=O)[C@](O)(c2cccs2)C2CCCC2)CC1`, the IC50 came to 0.4 nM.
